Assay results: patent US9360484B2, “Anti-FcRH5 antibodies and immunoconjugates and methods of use” (Genentech, Inc., priority 2009, dated 2016)

Columns and labels:
[1] = tested on: OPM2-FcRH5 tumors (OPM2 multiple myeloma cells stably transfected with human FcRH5); experiment: OPM2-FcRH5 xenograft: Hu anti-FcRH5 10A8-MC-vc-PAB-MMAE in combination with Revlimid and Revlimid plus Dexamethasone; format: in vivo, CB17 ICR SCID mice; settings: for CR (mice with Complete Remission: tumor volume dropped to 0 mm^3) / PR (mice with Partial Regression: tumor volume dropped below 50% of day 0) / TI (number of observable tumors at end of study): 38 day time course, ADC 6 mg/kg single IV day 0, Revlimid 50 mg/kg IP daily, Dexamethasone 3 mg/kg PO; for percent body weight change (FIG. 44): first 17 days
Source text: (§1) Specifically, the ability of the antibody in combination with Revlimid® and Revlimid® plus Dexamethasone to regress tumors in OPM2 cells (Multiple myeloma cell line) stably transfected with human FcRH5 was examined. After transfection of linearized pRK.CMV.PD.nbe.FcRH5 into OPM2 cells and puromycin (Calbiochem, San Diego, Calif.) selection, surviving cells were separated for FcRH5 expressing cells with biotin (Pierce Biotechnology, Rockford, Il) labeled anti-FcRH5.7D11 and MACS anti-Biotin microbeads on an MACS LS column (Miltenyi Biotec, Auburn, Calif.).
For analysis of efficacy of Hu anti-FcRH5 10A8 conjugated to -MC-vc-PAB-MMAE in combination with Revlimid® and Revlimid® plus Dexamethasone, female CB17 ICR SCID mice (6-8 weeks of age from Charles Rivers Laboratories; Hollister, Calif.) were inoculated subcutaneously with 2×10^7 OPM2-FcRH5 cells via injection into the flanks of CB17 ICR SCID mice and the xenograft tumors were allowed to grow to an average of 446 mm^3. Day 0 refers to the day the tumors were 263-630 mm^3 and when the first/or only dose of treatment was administered, unless indicated specifically below. Tumor volume was calculated based on two dimensions, measured using calipers, and was expressed in mm3 according to the formula: V=0.5a×b^2, where a and b are the long and the short diameters of the tumor, respectively. Data collected from each experimental group were expressed as mean+SE. Mice were randomized into nine groups of 8 mice each and dosed. Group 1 received daily intraperitoneal (IP) injections of a mixture of DMSO and MCT buffer on Days 0-13 as a vehicle control. […] Group 4 received daily IP injections of 50 mg/kg Revlimid® on Days 0-13. Group 5 received daily oral (PO) dosing of 3 mg/kg Dexamethasone for four days followed by three days off for two cycles on Days 0-3 and 7-10. Group 6 received daily IP injections of 50 mg/kg Revlimid® on Days 0-13 plus daily PO dosing of 3 mg/kg Dexamethasone for four days followed by three days off for two cycles on Days 0-3 and 7-10. […] Tumors were measured twice a week throughout the experiment. Body weights of mice were measured twice a week throughout the experiment. If mice experienced a body weight loss of greater than 15% compared to their body weight on Day 0, mice were weighed daily until weight regained or until body weight loss reached greater than 20%. […] All animal protocols were approved by an Institutional Animal Care and Use Committee (IACUC).

OPM2-FcRH5 tumors = experiment: Inhibition of in vivo tumor growth, OPM2-FcRH5 xenografts, hu10A8-MC-vc-PAB-MMAE alone and in combination with Velcade (Example 8, Table 14); set-up: species or system CB17 ICR SCID mice
Source text: as §1, with “antibody” for “antibody in combination with Revlimid®”, “Velcade®” for “Revlimid® plus Dexamethasone”
For analysis of efficacy of hu anti-FcRH5 10A8 conjugated with MC-vc-PAB-MMAE alone and in combination with Velcade®, female CB17 ICR SCID mice (6-8 weeks of age from Charles Rivers Laboratories; Hollister, Calif.) were inoculated subcutaneously with 2×10^7 OPM2-FcRH5 cells via injection into the flanks of CB17 ICR SCID mice and the xenograft tumors were allowed to grow to an average of 331 mm^3. Day 0 refers to the day the tumors were 172-511 mm^3 and when the first/or only dose of treatment was administered, unless indicated specifically below. Tumor volume was calculated based on two dimensions, measured using calipers, and was expressed in mm3 according to the formula: V=0.5a×b^2, where a and b are the long and the short diameters of the tumor, respectively. Data collected from each experimental group were expressed as mean±SE. Mice were randomized into nine groups of 9 mice each and dosed. Group 1 received a single intravenous (IV) injection of histidine buffer on Day 0 plus IV injections of 0.9% sodium chloride (saline) twice weekly for two weeks on Days 0, 3, 7, and 10 as a vehicle control. […] Group 3 received IV injections of 1 mg/kg Velcade® twice weekly for two weeks on Days 0, 3, 7, and 10. Group 4-5 received a single IV injection of 4 or 10 mg/kg thio hu anti-FcRH5(10A8)-HC-MC-vc-PAB-MMAE, CNJ 1465, respectively, on Day 0. […] Tumors were measured twice a week throughout the experiment. Body weights of mice were measured twice a week for the first three weeks. […] All animal protocols were approved by an Institutional Animal Care and Use Committee (IACUC).

[2] = tested on: OPM2-FcRH5 tumors (OPM2 multiple myeloma cells stably transfected with human FcRH5); experiment: OPM2-FcRH5 xenograft: Hu anti-FcRH5 10A8-SPDB-DM4 alone and in combination with Velcade; format: in vivo, CB17 ICR SCID mice
Source text: Specifically, the ability of the antibody and Velcade® to regress tumors in OPM2 cells (Multiple myeloma cell line) stably transfected with human FcRH5 was examined. After transfection of linearized […]5 into OPM2 cells and puromycin (Calbiochem, San Diego, Calif.) selection, surviving cells were separated for FcRH5 expressing cells with biotin (Pierce Biotechnology, Rockford, Il) labeled anti-FcRH5.7D11 and MACS anti-Biotin microbeads on an MACS LS column (Miltenyi Biotec, Auburn, Calif.). […] Data collected from each experimental group were expressed as mean±SE. Mice were randomized into six groups of 9 mice each and dosed. […] Group 2 received a single IV injection of histidine buffer on Day 0 plus IV injections of 0.9% sodium chloride (saline) twice weekly for two weeks on Days 0, 3, 7, and 10 as a vehicle control. […] Tumors were measured twice a week throughout the experiment. Body weights of mice were measured twice a week for the first three weeks. […] All animal protocols were approved by an Institutional Animal Care and Use Committee (IACUC).

cynomolgus FcRH5 = experiment: Cyno cross-reactivity by FACS on stably transfected cells (SVT2 cells expressing cynoFcRH5); format: binding, cynomolgus monkey; set-up: key to Cyno X-reactivity (FACS) on stable transfected cells: X*: *Very slight at saturating concentration
cynomolgus FcRH5, sequence (as listed by the source): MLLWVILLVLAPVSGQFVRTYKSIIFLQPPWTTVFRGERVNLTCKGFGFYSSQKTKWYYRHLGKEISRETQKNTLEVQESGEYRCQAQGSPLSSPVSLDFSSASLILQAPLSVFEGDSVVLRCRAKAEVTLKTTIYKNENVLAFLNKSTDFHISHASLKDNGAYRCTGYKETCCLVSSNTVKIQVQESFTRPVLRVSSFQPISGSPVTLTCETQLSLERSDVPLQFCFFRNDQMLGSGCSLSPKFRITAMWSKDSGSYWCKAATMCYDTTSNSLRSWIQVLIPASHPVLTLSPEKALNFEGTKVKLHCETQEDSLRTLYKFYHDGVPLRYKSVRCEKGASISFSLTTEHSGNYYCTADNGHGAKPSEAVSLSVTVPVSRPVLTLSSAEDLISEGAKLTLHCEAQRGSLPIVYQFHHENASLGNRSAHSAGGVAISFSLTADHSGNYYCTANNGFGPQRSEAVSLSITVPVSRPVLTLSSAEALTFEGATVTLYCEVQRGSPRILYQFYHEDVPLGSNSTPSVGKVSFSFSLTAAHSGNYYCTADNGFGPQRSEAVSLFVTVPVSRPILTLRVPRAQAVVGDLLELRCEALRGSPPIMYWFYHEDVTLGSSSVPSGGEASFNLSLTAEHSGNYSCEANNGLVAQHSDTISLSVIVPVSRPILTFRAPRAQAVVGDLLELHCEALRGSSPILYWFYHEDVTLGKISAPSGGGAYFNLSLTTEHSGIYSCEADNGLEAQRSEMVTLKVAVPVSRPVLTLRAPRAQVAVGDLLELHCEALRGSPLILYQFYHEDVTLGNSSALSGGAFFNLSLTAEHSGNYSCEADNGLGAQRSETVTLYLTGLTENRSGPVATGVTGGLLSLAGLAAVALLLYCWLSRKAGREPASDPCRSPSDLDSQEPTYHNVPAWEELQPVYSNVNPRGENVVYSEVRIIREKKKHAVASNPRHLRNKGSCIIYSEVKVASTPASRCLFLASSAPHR
Protocol: For additional FACS analysis of FcRH5 antibodies, 1.0 μg, 0.1 μg or 0.01 μg of antibody was titrated per million cells of BJAB cells stably expressing huFcRH5 and SVT2 cells stably expressing cynoFcRH5. Briefly, approximately 10^6 cells in 100 μl were incubated with varying amounts (1.0 ug, 01. ug or 0.01 ug) of murine Ab mu1H4, mu6H1, mu7D11, mu9E2, mu10A8, mu10F5, or mu13G9 per million cells of BJAB cells stably expressing huFcRH5 and SVT2 cells stably expressing cynoFcRH5. Incubation with 1.0 ug/10^6 cells of the appropriate Mu IgG isotype control was used as a negative control. PE conjugated Rat anti-MuIgG1 or Rat anti-MuIgG2a+b was used as the secondary detection antibody.

BJAB-FcRH5 tumors = experiment: In vivo tumor cell killing assay, BJAB-FcRH5 xenografts (Example 4); set-up: species or system CB17 ICR SCID mice; settings: unconjugated antibody, 10.8 mg/kg i.v. day 0 and day 7, 8 mice
Protocol: To test the efficacy of various anti-FcRH5 antibodies, murine anti-human antibodies were conjugated to DM1 and the effect of the conjugated variant on tumors in mice were analyzed.
Specifically, the ability of the antibodies to regress tumors in BJAB-luciferase cells (Burkitt's lymphoma cell line stably transfected with human FcRH5.
After transfection of pRK.CMV.PD.nbe.FcRH5 into BJAB-luciferase cells and puromycin (Calbiochem, San Diego, Calif.) selection, surviving cells were FACS autocloned for mid range expressers with anti-FcRH5 antibodies (7D11). Post autoclone, the BJAB-luciferase cell line expressing FcRH5 most closely resembling plasma cell expression, as determined by FACS, was chosen by FACS analysis using anti-FcRH5 antibodies (7D11). As a negative control, BJAB-luciferase transfected, in the same manner, with the empty vector pRK.CMV.PD.nbe were used.
For analysis of efficacy mouse antibodies, female CB17 ICR SCID mice (6-8 weeks of age from Charles Rivers Laboratories; Hollister, Calif.) were inoculated subcutaneously with 2×10^7 BJAB-FcRH5 cells via injection into the flanks of CB17 ICR SCID mice and the xenograft tumors were allowed to grow to an average of 128 mm^3. Day 0 refers to the day the tumors were an average of 100-250 mm^3 and when the first/or only dose of treatment was administered, unless indicated specifically below. Tumor volume was calculated based on two dimensions, measured using calipers, and was expressed in mm^3 according to the formula: V=0.5a×b^2, where a and b are the long and the short diameters of the tumor, respectively. Data collected from each experimental group were expressed as mean±SE. Groups of 8 mice were treated with a weekly intravenous (i.v.) dose of 400 μg of antibody-linked drug/m^2 mouse (corresponding to ˜8-10 mg ADC/kg of mouse) with anti-FcRH5 ADC or control antibody-drug conjugates at day 0 and day 7. Tumors were measured twice a week throughout the experiment. Body weights of mice were measured either once a week throughout the experiment. […]

[3] = Velcade 1 mg/kg twice weekly for two weeks (Days 0, 3, 7, 10), OPM2-FcRH5 xenograft, CB17 ICR SCID mice
[4] = 37 day time course, ADC 4 mg/kg single IV day 0, Velcade 1 mg/kg IV days 0, 3, 7, 10

Molecule: C[C@@H]1C[C@H]2[C@@H]3CCC4=CC(=O)C=C[C@]4(C)[C@@]3(F)[C@@H](O)C[C@]2(C)[C@@]1(O)C(=O)CO [Dexamethasone]
- CR (mice with Complete Remission: tumor volume dropped to 0 mm^3) [1]: 0
- PR (mice with Partial Regression: tumor volume dropped below 50% of day 0) [1]: 0
- TI (number of observable tumors at end of study) [1]: 5/5
- percent body weight change (FIG. 44) [1]: caused a significant decrease in body weight or weight loss

Molecule: Nc1cccc2c1CN(C1CCC(=O)NC1=O)C2=O (stereo not drawn) [Revlimid, lenalidomide]
- CR (mice with Complete Remission: tumor volume dropped to 0 mm^3) [1]: 0
- PR (mice with Partial Regression: tumor volume dropped below 50% of day 0) [1]: 0
- TI (number of observable tumors at end of study) [1]: 4/4
- percent body weight change (FIG. 44) [1]: caused a significant decrease in body weight or weight loss

Molecule: CC(C)C[C@H](NC(=O)[C@H](Cc1ccccc1)NC(=O)c1cnccn1)B(O)O [Velcade ®]
- CR (Complete Remission; number of mice with tumor volume dropped to 0 mm^3) (OPM2-FcRH5 tumors; [3]): 0
- PR (Partial Regression; number of mice with tumor volume below 50% of day 0 volume) (OPM2-FcRH5 tumors; [3]): 0
- TI (number of observable tumors at end of study) (OPM2-FcRH5 tumors; [3]): 9/9
- CR (mice with Complete Remission: tumor volume dropped to 0 mm^3) [2, 4]: 0
- PR (mice with Partial Regression: tumor volume dropped below 50% of day 0) [2, 4]: 0
- TI (number of observable tumors at end of study) [2, 4]: 8/8

Molecule: CC(C)C[C@H](NC(=O)[C@H](Cc1ccccc1)NC(=O)c1cnccn1)B(O)O [Velcade®, bortezomib]
- percent body weight change (OPM2-FcRH5 tumors; first 24 days, 1 mg/kg IV twice weekly for two weeks): caused a decrease in body weight or weight loss through the duration of treatment, but weight rebounded after dosing was complete
- percent body weight change (FIG. 42) ([2]; first 21 days): did not cause a significant decrease in body weight or weight loss

B1: 7D11: murine monoclonal antibody binding human FcRH5 (antibody, V domains shown)
VH: EVQLVESGGGLVQPGGSLKLSCAASGFTFSSYGMSWVRQTPDKRLELVATITRNGGTTYYLDSVKGRFTISRDNAKNTLYLQMSSLKSEDTAMYYCARGPIYYDYGYAMDYWGQGTTVTVSS
VL: DILLTQSPAILSVSPGERVSFSCRSSQSIGTNIHWYQQRTNGSPRLLIKFASESLSGIPSRFSGSGSGTDFTLSINSVESEDFADYYCQQSNSWPLTFGAGTKVEIK
- Cyno X-reactivity (FACS) on stable transfected cells (cynomolgus FcRH5): X*
- cross reaction with cynomolgus FcRH5 by FACS analysis (cynomolgus FcRH5; 1.0, 0.1 or 0.01 μg antibody per million SVT2 cells stably expressing cynoFcRH5): cross react with cynomolgus FcRH5
- CR (Complete Remission, number of mice) (BJAB-FcRH5 tumors): 0
- PR (Partial Regression, number of mice) (BJAB-FcRH5 tumors): 0
- TI (number of observable tumors at end of study) (BJAB-FcRH5 tumors): 8/8
